# Assay results from PubChem BioAssay AID1963845 (Molecular Pharmacology Branch, DTP, NCI, 2024).
# Test system: 429239-143-T-J1-PDC complex spheroid viability
# Experiment: Anticancer human tumor 429239-143-T-J1-PDC patient-derived small cell lung carcinoma cell line growth inhibition [POLQ]
# Settings: for IC50: curve of first compound; for viability, T/C: stronger effect = lower value
# How it was run: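 Complex spheroid viability model combining PDC tumour cells with endothelial (HUVEC) and MSC stromal cells. Novobiocin, ART-558 or RP6685 were tested singly and in combination with standard and investigational anticancer drugs. Each was titrated in half-log steps from near clinical Cmax, or from 10 microM where Cmax was unknown.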
# [1] = second compound 0.0316 µM, first compound 0.00316 µM
# [2] = second compound 0.0316 µM, first compound 0.01 µM
# [3] = second compound 0.0316 µM, first compound 0.0316 µM
# [4] = second compound 0.0316 µM, first compound 0.1 µM
# [5] = second compound 0.0316 µM, first compound 0.316 µM
# [6] = second compound 0.0316 µM, first compound 1 µM
# [7] = second compound 0.1 µM, first compound 0.00316 µM
# [8] = second compound 0.1 µM, first compound 0.01 µM
# [9] = second compound 0.1 µM, first compound 0.0316 µM
# [10] = second compound 0.1 µM, first compound 0.1 µM
# [11] = second compound 0.1 µM, first compound 0.316 µM
# [12] = second compound 0.1 µM, first compound 1 µM
# [13] = second compound 0.316 µM, first compound 0.00316 µM
# [14] = second compound 0.316 µM, first compound 0.01 µM
# [15] = second compound 0.316 µM, first compound 0.0316 µM
# [16] = second compound 0.316 µM, first compound 0.1 µM
# [17] = second compound 0.316 µM, first compound 0.316 µM
# [18] = second compound 0.316 µM, first compound 1 µM
# [19] = second compound 1 µM, first compound 0.00316 µM
# [20] = second compound 1 µM, first compound 0.01 µM
# [21] = second compound 1 µM, first compound 0.0316 µM
# [22] = second compound 1 µM, first compound 0.1 µM
# [23] = second compound 1 µM, first compound 0.316 µM
# [24] = second compound 1 µM, first compound 1 µM
# [25] = second compound 3.16 µM, first compound 0.00316 µM
# [26] = second compound 3.16 µM, first compound 0.01 µM
# [27] = second compound 3.16 µM, first compound 0.0316 µM
# [28] = second compound 3.16 µM, first compound 0.1 µM
# [29] = second compound 3.16 µM, first compound 0.316 µM
# [30] = second compound 3.16 µM, first compound 1 µM
# [31] = second compound 10 µM, first compound 0.00316 µM
# [32] = second compound 10 µM, first compound 0.01 µM
# [33] = second compound 10 µM, first compound 0.0316 µM
# [34] = second compound 10 µM, first compound 0.1 µM
# [35] = second compound 10 µM, first compound 0.316 µM
# [36] = second compound 10 µM, first compound 1 µM
# [37] = second compound 0.0316 µM, first compound 3.16 µM
# [38] = second compound 0.0316 µM, first compound 10 µM
# [39] = second compound 0.1 µM, first compound 3.16 µM
# [40] = second compound 0.1 µM, first compound 10 µM
# [41] = second compound 0.316 µM, first compound 3.16 µM
# [42] = second compound 0.316 µM, first compound 10 µM
# [43] = second compound 1 µM, first compound 3.16 µM
# [44] = second compound 1 µM, first compound 10 µM
# [45] = second compound 3.16 µM, first compound 3.16 µM
# [46] = second compound 3.16 µM, first compound 10 µM
# [47] = second compound 10 µM, first compound 3.16 µM
# [48] = second compound 10 µM, first compound 10 µM
# 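Also: luminescence signal used as surrogate measure of viable cells; spheroids exposed to compounds for seven days before readout.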
# 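For viability, T/C in this document: 100% = DMSO vehicle control viability as luminescence relative to vehicle.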
structure (smiles),measurement,setting,value
C=CCn1c(=O)c2cnc(Nc3ccc(N4CCN(C)CC4)cc3)nc2n1-c1cccc(C(C)(C)O)n1 + Cc1cccc(N(C)C(=O)C2C(O)CCN2c2nc(C)cc(C(F)(F)F)c2C#N)c1,IC50,second compound 0.0316 µM,644 nM
same,IC50,second compound 0.1 µM,637 nM
same,IC50,second compound 0.316 µM,593 nM
same,IC50,second compound 1 µM,587 nM
same,IC50,second compound 3.16 µM,609 nM
same,IC50,second compound 10 µM,642 nM
same,"viability, T/C",[1],106%
same,"viability, T/C",[2],110%
same,"viability, T/C",[3],103%
same,"viability, T/C",[4],95.1%
same,"viability, T/C",[5],103%
same,"viability, T/C",[6],17%
same,"viability, T/C",[7],105%
same,"viability, T/C",[8],105%
same,"viability, T/C",[9],97.5%
same,"viability, T/C",[10],102%
same,"viability, T/C",[11],103%
same,"viability, T/C",[12],16.1%
same,"viability, T/C",[13],109%
same,"viability, T/C",[14],106%
same,"viability, T/C",[15],106%
same,"viability, T/C",[16],116%
same,"viability, T/C",[17],91.1%
same,"viability, T/C",[18],16.1%
same,"viability, T/C",[19],107%
same,"viability, T/C",[20],100%
same,"viability, T/C",[21],103%
same,"viability, T/C",[22],111%
same,"viability, T/C",[23],89.6%
same,"viability, T/C",[24],16%
same,"viability, T/C",[25],108%
same,"viability, T/C",[26],102%
same,"viability, T/C",[27],97.7%
same,"viability, T/C",[28],111%
same,"viability, T/C",[29],93.3%
same,"viability, T/C",[30],16.7%
same,"viability, T/C",[31],118%
same,"viability, T/C",[32],113%
same,"viability, T/C",[33],113%
same,"viability, T/C",[34],100%
same,"viability, T/C",[35],104%
same,"viability, T/C",[36],16.6%
CCCS(=O)(=O)Nc1ccc(F)c(C(=O)c2c[nH]c3ncc(-c4ccc(Cl)cc4)cc23)c1F + Cc1cccc(N(C)C(=O)C2C(O)CCN2c2nc(C)cc(C(F)(F)F)c2C#N)c1,IC50,second compound 0.0316 µM,> 10000 nM
same,IC50,second compound 0.1 µM,> 10000 nM
same,IC50,second compound 0.316 µM,> 10000 nM
same,IC50,second compound 1 µM,> 10000 nM
same,IC50,second compound 3.16 µM,> 10000 nM
same,IC50,second compound 10 µM,> 10000 nM
same,"viability, T/C",[3],91.3%
same,"viability, T/C",[4],106%
same,"viability, T/C",[5],88.6%
same,"viability, T/C",[6],93.4%
same,"viability, T/C",[37],94%
same,"viability, T/C",[38],81.7%
same,"viability, T/C",[9],92.2%
same,"viability, T/C",[10],89.9%
same,"viability, T/C",[11],89.4%
same,"viability, T/C",[12],97.2%
same,"viability, T/C",[39],93.6%
same,"viability, T/C",[40],82.8%
same,"viability, T/C",[15],99.5%
same,"viability, T/C",[16],92.8%
same,"viability, T/C",[17],96.9%
same,"viability, T/C",[18],94.1%
same,"viability, T/C",[41],87.5%
same,"viability, T/C",[42],79%
same,"viability, T/C",[21],103%
same,"viability, T/C",[22],87.7%
same,"viability, T/C",[23],92.3%
same,"viability, T/C",[24],91%
same,"viability, T/C",[43],90.3%
same,"viability, T/C",[44],77.5%
same,"viability, T/C",[27],98.8%
same,"viability, T/C",[28],96.9%
same,"viability, T/C",[29],97.4%
same,"viability, T/C",[30],94.2%
same,"viability, T/C",[45],105%
same,"viability, T/C",[46],79.5%
same,"viability, T/C",[33],100%
same,"viability, T/C",[34],105%
same,"viability, T/C",[35],85.2%
same,"viability, T/C",[36],93.5%
same,"viability, T/C",[47],98.8%
same,"viability, T/C",[48],81.9%
CNCc1ccc(-c2[nH]c3cc(F)cc4c3c2CCNC4=O)cc1 + Cc1cccc(N(C)C(=O)C2C(O)CCN2c2nc(C)cc(C(F)(F)F)c2C#N)c1,IC50,second compound 0.0316 µM,3090 nM
same,IC50,second compound 0.1 µM,2600 nM
same,IC50,second compound 0.316 µM,2210 nM
same,IC50,second compound 1 µM,2220 nM
same,IC50,second compound 3.16 µM,2450 nM
same,IC50,second compound 10 µM,3240 nM
same,"viability, T/C",[3],113%
same,"viability, T/C",[4],83.8%
same,"viability, T/C",[5],85.1%
same,"viability, T/C",[6],75%
same,"viability, T/C",[37],51%
same,"viability, T/C",[38],21.1%
same,"viability, T/C",[9],90.9%
same,"viability, T/C",[10],92.7%
same,"viability, T/C",[11],79.4%
same,"viability, T/C",[12],66.2%
same,"viability, T/C",[39],47.5%
same,"viability, T/C",[40],19.7%
same,"viability, T/C",[15],97.8%
same,"viability, T/C",[16],94.7%
same,"viability, T/C",[17],75.8%
same,"viability, T/C",[18],70.7%
same,"viability, T/C",[41],40%
same,"viability, T/C",[42],22.7%
same,"viability, T/C",[21],86.7%
same,"viability, T/C",[22],82.3%
same,"viability, T/C",[23],72.3%
same,"viability, T/C",[24],66.2%
same,"viability, T/C",[43],42.4%
same,"viability, T/C",[44],24.4%
same,"viability, T/C",[27],91.3%
same,"viability, T/C",[28],84.9%
same,"viability, T/C",[29],95.5%
same,"viability, T/C",[30],62.9%
same,"viability, T/C",[45],47.8%
same,"viability, T/C",[46],22%
same,"viability, T/C",[33],80.3%
same,"viability, T/C",[34],91.4%
same,"viability, T/C",[35],83.8%
same,"viability, T/C",[36],61.8%
same,"viability, T/C",[47],54.2%
same,"viability, T/C",[48],23%
COc1cccc(OCCCN)c1-c1cc(Nc2cnc(C#N)cn2)n[nH]1 + Cc1cccc(N(C)C(=O)C2C(O)CCN2c2nc(C)cc(C(F)(F)F)c2C#N)c1,IC50,second compound 0.0316 µM,377 nM
same,IC50,second compound 0.1 µM,339 nM
same,IC50,second compound 0.316 µM,248 nM
same,IC50,second compound 1 µM,256 nM
same,IC50,second compound 3.16 µM,273 nM
same,IC50,second compound 10 µM,227 nM
same,"viability, T/C",[1],101%
same,"viability, T/C",[2],110%
same,"viability, T/C",[3],87.7%
same,"viability, T/C",[4],73.1%
same,"viability, T/C",[5],52.7%
same,"viability, T/C",[6],39.3%
same,"viability, T/C",[7],101%
same,"viability, T/C",[8],106%
same,"viability, T/C",[9],92.9%
same,"viability, T/C",[10],72%
same,"viability, T/C",[11],52.7%
same,"viability, T/C",[12],36.7%
same,"viability, T/C",[13],106%
same,"viability, T/C",[14],108%
same,"viability, T/C",[15],86.4%
same,"viability, T/C",[16],67.2%
same,"viability, T/C",[17],46.6%
same,"viability, T/C",[18],32%
same,"viability, T/C",[19],108%
same,"viability, T/C",[20],105%
same,"viability, T/C",[21],90.8%
same,"viability, T/C",[22],68.1%
same,"viability, T/C",[23],46.5%
same,"viability, T/C",[24],33.1%
same,"viability, T/C",[25],117%
same,"viability, T/C",[26],108%
same,"viability, T/C",[27],93.8%
same,"viability, T/C",[28],65.4%
same,"viability, T/C",[29],49.8%
same,"viability, T/C",[30],34.9%
same,"viability, T/C",[31],118%
same,"viability, T/C",[32],92.1%
same,"viability, T/C",[33],92.1%
same,"viability, T/C",[34],66.4%
same,"viability, T/C",[35],39.3%
same,"viability, T/C",[36],27.7%
